Patent publication US9115137B2, “2,3,4,5-tetrahydro-1H-pyrido[4,3-B]indole compounds and methods of use thereof” (priority 2008, dated 2015)

Assays:
[1] = target: T1, human recombinant serotonin (5-Hydroxytryptamine) 5-HT6 receptor (Homo sapiens, UniProt P50406); assay: Serotonin 5-HT6 radioligand binding ([3H]LSD); details: compound at 1 μM; HeLa cells; read-out: Serotonin (1 μM) 5-HT6, percent inhibition of specific binding
T1 construct: expressed in transfected cells; host or cells: human HeLa cells
Description: To evaluate in radioligand binding assays the activity of compounds of the invention, human recombinant serotonin (5-Hydroxytryptamine) 5-HT6 receptor expressed in human HeLa cells (Monsma, F. J. Jr. et al., Mol. Pharmacol. 43:320, 1993) in a modified Tris-HCl buffer (50 mM Tris-HCl, pH 7.4, 150 mM NaCl, 2 mM Ascorbic Acid, 0.001% BSA) was used. Compounds of the invention were incubated with 1.5 nM [3H]Lysergic acid diethylamide (LSD) for 120 minutes at 37° C. Non-specific binding was estimated in the presence of 5 μM Serotonin (5-HT). Receptor proteins were filtered and washed, the filters were then counted to determine [3H]LSD specifically bound. Compounds were screened at 1 μM or lower, using 1% DMSO as vehicle. Biochemical assay results are presented as the percent inhibition of specific binding in Table 7.

[2] = target: T2, human recombinant adrenergic α2A receptor (Homo sapiens, UniProt P08913); assay: Adrenergic α2A radioligand binding ([3H]MK-912); details: compound at 1 μM; insect Sf9 cells; read-out: Adrenergic (1 μM) α2A, percent inhibition of specific binding
T2 construct: expressed in transfected cells; host or cells: insect Sf9 cells
T2 sequence (P08913 1-465): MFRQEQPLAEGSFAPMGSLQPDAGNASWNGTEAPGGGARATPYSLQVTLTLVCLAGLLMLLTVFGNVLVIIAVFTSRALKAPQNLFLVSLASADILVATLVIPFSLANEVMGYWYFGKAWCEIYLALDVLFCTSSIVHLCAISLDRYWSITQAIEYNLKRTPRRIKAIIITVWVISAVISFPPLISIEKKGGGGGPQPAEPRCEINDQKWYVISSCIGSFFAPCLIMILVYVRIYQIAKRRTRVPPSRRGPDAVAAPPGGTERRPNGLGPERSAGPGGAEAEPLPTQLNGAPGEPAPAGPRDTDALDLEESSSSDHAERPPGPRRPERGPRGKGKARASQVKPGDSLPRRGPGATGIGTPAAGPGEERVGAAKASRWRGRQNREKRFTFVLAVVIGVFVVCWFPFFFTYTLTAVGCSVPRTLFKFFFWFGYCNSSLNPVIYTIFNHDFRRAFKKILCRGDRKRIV
Description: To evaluate in radioligand binding assays the activity of compounds of the invention, human recombinant adrenergic α2A receptor expressed in insect Sf9 cells (Uhlen S et al. J Pharmacol Exp Ther. 271:1558, 1994) in a modified Tris-HCl buffer (50 mM Tris-HCl, pH 7.4, 12.5 mM MgCl2, 2 mM EDTA) was used. Compounds of invention were incubated with 1 nM [^3H]MK-912 for 60 minutes at 25° C. MK912 is (2S-trans)-1,3,4,5′,6,6′,7,12b-octahydro-1′,3′-dimethyl-spiro[2H-benzofuro[2,3-a]quinolizine-2,4′(1′H)-pyrimidin]-2′(3′H)-one hydrochloride Non-specific binding was estimated in the presence of 10 μM WB-4101 (2-(2,6-Dimethoxyphenoxyethyl)aminomethyl-1,4-benzodioxane hydrochloride). Receptor proteins were filtered and washed, the filters were then counted to determine [^3H]MK-912 specifically bound. Compounds were screened at 1 μM or lower, using 1% DMSO as vehicle. Biochemical assay results are presented as the percent inhibition of specific binding in Table 6.

[3] = target: T3, human recombinant adrenergic α1D receptor (Homo sapiens, UniProt P25100); assay: Adrenergic α1D radioligand binding ([3H]Prozosin); details: compound at 1 μM; HEK-293 cells; read-out: Adrenergic (1 μM) α1D, percent inhibition of specific binding
T3 construct: expressed in transfected cells; host or cells: HEK-293 cells
T3 sequence (P25100 1-572): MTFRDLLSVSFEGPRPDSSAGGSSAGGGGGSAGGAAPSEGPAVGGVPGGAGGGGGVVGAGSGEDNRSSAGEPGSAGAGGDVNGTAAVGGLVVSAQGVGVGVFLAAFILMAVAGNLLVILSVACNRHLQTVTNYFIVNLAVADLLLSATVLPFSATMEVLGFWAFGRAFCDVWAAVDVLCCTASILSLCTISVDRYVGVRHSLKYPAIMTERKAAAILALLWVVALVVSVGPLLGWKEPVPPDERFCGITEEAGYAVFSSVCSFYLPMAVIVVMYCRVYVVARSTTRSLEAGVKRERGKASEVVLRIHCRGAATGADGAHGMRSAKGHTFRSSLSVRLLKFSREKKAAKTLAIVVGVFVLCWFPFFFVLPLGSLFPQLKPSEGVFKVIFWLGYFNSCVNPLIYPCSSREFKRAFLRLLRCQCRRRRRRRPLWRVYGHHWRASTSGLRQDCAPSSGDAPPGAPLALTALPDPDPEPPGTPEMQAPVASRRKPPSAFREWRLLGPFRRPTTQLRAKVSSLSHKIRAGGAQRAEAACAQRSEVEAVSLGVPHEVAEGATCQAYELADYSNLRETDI
Description: To evaluate in radioligand binding assays the activity of compounds of the invention, human recombinant adrenergic α1D receptor expressed in human embryonic kidney (HEK-293) cells (Kenny, B. A. et al. Br. J. Pharmacol. 115(6):981, 1995) in a 50 mM Tris-HCl buffer, pH 7.4, was used. Compounds of invention were incubated with 0.6 nM [^3H]Prozosin for 60 minutes at 25° C. Non-specific binding was estimated in the presence of 10 μM phentolamine. Receptor proteins were filtered and washed, the filters were then counted to determine [^3H]Prozosin specifically bound. Compounds were screened at 1 μM or lower, using 1% DMSO as vehicle. Biochemical assay results are presented as the percent inhibition of specific binding in Table 6.

[4] = target: T4, human recombinant histamine H2 receptor (Homo sapiens, UniProt P25021); assay: Histamine H2 radioligand binding ([125I]aminopotentidine); details: compound at 1 μM; CHO K1 cells; read-out: Histamine Binding (1 μM) H2, percent inhibition of specific binding
T4 construct: expressed in transfected cells; host or cells: CHO-K1 cells
Description: To evaluate in radioligand binding assays the activity of compounds of the invention, human recombinant histamine H2 receptor expressed in Chinese hamster ovary (CHO) K1 cells (Ruat, M., Proc. Natl. Acad. Sci. USA. 87(5):1658, 1990) in a 50 mM Phosphate buffer, pH 7.4 was used. Compounds of the invention were incubated with 0.1 nM [^125I]aminopotentidine for 120 minutes at 25° C. Non-specific binding was estimated in the presence of 3 μM Tiotidine. Receptor proteins were filtered and washed, the filters were then counted to determine [^125I]Aminopotentidine specifically bound. Compounds were screened at 1 μM, using 1% DMSO as vehicle. Biochemical assay results are presented as the percent inhibition of specific binding in Table 5.

T1 sequence (P50406 whole entry): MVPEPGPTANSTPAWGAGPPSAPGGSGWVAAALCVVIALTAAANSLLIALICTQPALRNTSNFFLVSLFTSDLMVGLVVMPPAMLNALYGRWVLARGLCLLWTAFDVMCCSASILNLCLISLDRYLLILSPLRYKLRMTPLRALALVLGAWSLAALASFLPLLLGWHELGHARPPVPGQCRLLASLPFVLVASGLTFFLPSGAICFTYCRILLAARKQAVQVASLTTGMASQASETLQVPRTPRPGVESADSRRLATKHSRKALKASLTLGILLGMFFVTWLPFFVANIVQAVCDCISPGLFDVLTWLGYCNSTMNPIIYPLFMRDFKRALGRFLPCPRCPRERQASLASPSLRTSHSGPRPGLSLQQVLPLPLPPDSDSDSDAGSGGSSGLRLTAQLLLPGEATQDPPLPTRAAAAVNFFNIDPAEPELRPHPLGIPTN
T4 sequence (P25021 whole entry): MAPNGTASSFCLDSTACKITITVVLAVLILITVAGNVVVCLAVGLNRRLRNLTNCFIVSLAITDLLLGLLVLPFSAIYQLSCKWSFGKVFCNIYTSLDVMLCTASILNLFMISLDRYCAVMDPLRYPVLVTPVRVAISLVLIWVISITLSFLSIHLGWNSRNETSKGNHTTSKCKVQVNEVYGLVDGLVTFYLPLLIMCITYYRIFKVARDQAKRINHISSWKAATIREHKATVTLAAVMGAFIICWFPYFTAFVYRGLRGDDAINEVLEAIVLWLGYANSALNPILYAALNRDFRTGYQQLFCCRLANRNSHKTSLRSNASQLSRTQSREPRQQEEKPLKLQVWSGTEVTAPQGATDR

Row | SMILES | inhibition at 1 µM [1] [%] | inhibition at 1 µM [2] [%] | inhibition at 1 µM [3] [%] | inhibition at 1 µM [4] [%]
1 | CCNC(=O)CCn1c2c(c3cc(C)ccc31)CN(C)CC2 [Compound 2, N-ethyl-3-(1,2,3,4-tetrahydro-2,8-dimethylpyrido[4,3-b]indol-5-yl)propanamide] | 19 | 35 | 17 | 5
2 | Cc1ccc2c(c1)c1c(n2CCC(=O)NC2CCCCC2)CCN(C)C1 [Compound 3, N-cyclohexyl-3-(1,2,3,4-tetrahydro-2,8-dimethylpyrido[4,3-b]indol-5-yl)propanamide] | 19 | 14 | 45 | 23
3 | Cc1ccc2c(c1)c1c(n2CCC(=O)NC2CCCC2)CCN(C)C1 [Compound 4, N-cyclopentyl-3-(1,2,3,4-tetrahydro-2,8-dimethylpyrido[4,3-b]indol-5-yl)propanamide] | 28 | 45 | 64 | 20
4 | CCOC(=O)CCCn1c2c(c3cc(C)ccc31)CN(C)CC2 [Compound 5, ethyl 4-(1,2,3,4-tetrahydro-2,8-dimethylpyrido[4,3-b]indol-5-yl)butanoate] | 88 | 74 | 70 | 48
5 | CCNC(=O)CCCn1c2c(c3cc(C)ccc31)CN(C)CC2 [Compound 6, N-ethyl-4-(1,2,3,4-tetrahydro-2,8-dimethylpyrido[4,3-b]indol-5-yl)butanamide] | 23 | 59 | 0 | 0
6 | Cc1ccc2c(c1)c1c(n2CCNC(=O)OCC(Cl)(Cl)Cl)CCN(C)C1 [Compound 8, 2,2,2-trichloroethyl 2-(1,2,3,4-tetrahydro-2,8-dimethylpyrido[4,3-b]indol-5-yl)ethylcarbamate] | 83 | 90 | 72 | 74
7 | Cc1ccc2c(c1)c1c(n2CCNC(=O)C2CCCNC2)CCN(C)C1 (centres unmarked) [Compound 9, N-(2-(1,2,3,4-tetrahydro-2,8-dimethylpyrido[4,3-b]indol-5-yl)ethyl)piperidine-3-carboxamide] | -5 | 20 | 11 | -44
8 | CCOC(=O)Cn1c2c(c3cc(Cl)ccc31)CN(C)CC2 [Compound 10, ethyl 2-(8-chloro-1,2,3,4-tetrahydro-2-methylpyrido[4,3-b]indol-5-yl)acetate] | 69 | 40 | 50 | 28
9 | CC(C)OC(=O)Cn1c2c(c3cc(Cl)ccc31)CN(C)CC2 [Compound 11, isopropyl 2-(8-chloro-1,2,3,4-tetrahydro-2-methylpyrido[4,3-b]indol-5-yl)acetate] | 66 | 25 | 38 | 7
10 | CN1CCc2c(c3cc(Cl)ccc3n2CC(=O)OC(C)(C)C)C1 [Compound 12, tert-butyl 2-(8-chloro-1,2,3,4-tetrahydro-2-methylpyrido[4,3-b]indol-5-yl)acetate] | 67 | 12 | 13 | 40
11 | CN1CCc2c(c3cc(Cl)ccc3n2CC(=O)OCc2ccccc2)C1 [Compound 13, benzyl 2-(8-chloro-1,2,3,4-tetrahydro-2-methylpyrido[4,3-b]indol-5-yl)acetate] | 101 | 73 | 55 | 51
12 | CN1CCc2c(c3cc(Cl)ccc3n2CC(=O)OCC2CCCCC2)C1 [Compound 14, cyclohexylmethyl 2-(8-chloro-1,2,3,4-tetrahydro-2-methylpyrido[4,3-b]indol-5-yl)acetate] | 106 | 79 | 72 | 89
13 | CN1CCc2c(c3cc(Cl)ccc3n2CC(=O)OC2CCCC2)C1 [Compound 15] | 96 | 67 | 58 | 47
14 | CC(C)OC(=O)CCn1c2c(c3cc(Cl)ccc31)CN(C)CC2 [Compound 17, isopropyl 3-(8-chloro-1,2,3,4-tetrahydro-2-methylpyrido[4,3-b]indol-5-yl)propanoate] | 99 | 90 | 73 | 64
15 | CN1CCc2c(c3cc(Cl)ccc3n2CCC(=O)OCc2ccccc2)C1 [Compound 19, benzyl 3-(8-chloro-1,2,3,4-tetrahydro-2-methylpyrido[4,3-b]indol-5-yl)propanoate] | 100 | 86 | 83 | 81
16 | CN1CCc2c(c3cc(Cl)ccc3n2CCC(=O)OCC2CCCCC2)C1 [Compound 20, cyclohexylmethyl 3-(8-chloro-1,2,3,4-tetrahydro-2-methylpyrido[4,3-b]indol-5-yl)propanoate] | 93 | 95 | 90 | 93
17 | CN1CCc2c(c3cc(Cl)ccc3n2CCC(=O)OC2CCCC2)C1 [Compound 21, cyclopentyl 3-(8-chloro-1,2,3,4-tetrahydro-2-methylpyrido[4,3-b]indol-5-yl)propanoate] | 100 | 95 | 88 | 82
